Source: US8912186B2, “Allosteric protein kinase modulators” (Universitaet des Saarlandes, priority 2008, dated 2014)

Key:
Type in all cases: biochemical
[1] = target: T1, PDK1 (Homo sapiens, UniProt O15530); test: cell-free kinase activity assay (ATPgamma[32P], T308tide substrate); conditions: for AC50 / AC50 PDK1 (μM): concentration of the compound required to activate half maximally; for AC50 / max. activation of PDK1 (fold) / AC50 PDK1 (μM): n.e.: no effect; for max. activation of PDK1 (fold): maximum activation achievable, compared to the basal activity of PDK1
T1 construct: GST
T1 sequence (O15530 1-556): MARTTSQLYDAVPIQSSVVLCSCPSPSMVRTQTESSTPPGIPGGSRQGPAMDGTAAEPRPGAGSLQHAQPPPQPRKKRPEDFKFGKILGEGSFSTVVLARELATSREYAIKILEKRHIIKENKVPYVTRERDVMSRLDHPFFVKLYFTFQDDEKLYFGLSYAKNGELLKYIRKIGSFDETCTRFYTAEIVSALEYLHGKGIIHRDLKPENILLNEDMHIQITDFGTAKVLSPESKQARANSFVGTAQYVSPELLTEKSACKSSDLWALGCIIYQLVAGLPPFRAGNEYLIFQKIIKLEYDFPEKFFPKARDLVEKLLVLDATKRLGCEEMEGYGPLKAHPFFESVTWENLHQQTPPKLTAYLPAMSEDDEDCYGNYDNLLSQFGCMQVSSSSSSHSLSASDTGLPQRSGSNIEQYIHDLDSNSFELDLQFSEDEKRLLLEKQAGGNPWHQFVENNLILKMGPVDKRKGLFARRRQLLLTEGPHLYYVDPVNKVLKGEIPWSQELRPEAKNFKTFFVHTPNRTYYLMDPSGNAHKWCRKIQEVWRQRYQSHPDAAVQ
Description: Principle of the cell-free kinase activity assay: In general, the activity of the compounds as protein kinase inhibitors or activators may be assayed in vitro (cell free assay is meant here), in vivo or in a cell line. In vitro assays include assays that determine inhibition or activation of either the phosphorylation activity or ATPase activity of the activated protein kinase. Alternate in vitro assays quantitate the ability of the inhibitor to bind to the protein kinase. Compound binding may be measured by radiolabelling the compound prior to binding, isolating the inhibitor or activator/protein kinase complex and determining the amount of radiolabel bound. Alternatively, inhibitor or activator binding may be determined by running a competition experiment where new compounds are incubated with the protein kinase bound to known radioligands. Newer methods comprise fluorescence polarisation assays and surface plasmon resonance dependent techniques. […] The activity and modulation of activity is measured using a standard ATPgamma[^32P] assay as described earlier. […] The concentration of T308tide is 1 mM and the amount of PDK1 used is 200 ng. Reactions are carried out at room temperature. Reaction is started by addition of ATP-Mg mix and stopped with phosphoric acid after 30 min. Stopped reactions were spotted on to phosphocellulose paper (P81, Whatman) and washed. After drying, the radioactivity associated to the band was quantified.

[2] = target: S6K (Homo sapiens, UniProt P23443); test: cell-free kinase activity assay; conditions: DMSO control set 100%
Sequence of S6K (P23443 whole entry): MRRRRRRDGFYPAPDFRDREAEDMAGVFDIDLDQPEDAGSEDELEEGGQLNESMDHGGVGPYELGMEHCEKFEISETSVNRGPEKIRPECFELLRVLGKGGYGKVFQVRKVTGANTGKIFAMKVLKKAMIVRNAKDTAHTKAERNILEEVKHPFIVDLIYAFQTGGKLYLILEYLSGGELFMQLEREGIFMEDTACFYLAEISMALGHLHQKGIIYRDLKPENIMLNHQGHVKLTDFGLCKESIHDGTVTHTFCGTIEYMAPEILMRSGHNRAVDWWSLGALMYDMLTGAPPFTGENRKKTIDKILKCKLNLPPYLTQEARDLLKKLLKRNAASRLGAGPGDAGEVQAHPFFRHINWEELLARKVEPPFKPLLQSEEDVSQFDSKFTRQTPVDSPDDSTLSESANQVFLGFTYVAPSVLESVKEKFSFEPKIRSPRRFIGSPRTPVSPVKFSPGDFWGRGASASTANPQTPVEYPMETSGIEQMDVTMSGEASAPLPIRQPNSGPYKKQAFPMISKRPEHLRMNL

[3] = target: PKA (Homo sapiens, UniProt P17612); test: cell-free kinase activity assay; conditions: DMSO control set 100%
[4] = target: PRK2 (Homo sapiens, UniProt Q16513); test: cell-free kinase activity assay; conditions: DMSO control set 100%
Sequence of PRK2 (Q16513 whole entry, species assumed): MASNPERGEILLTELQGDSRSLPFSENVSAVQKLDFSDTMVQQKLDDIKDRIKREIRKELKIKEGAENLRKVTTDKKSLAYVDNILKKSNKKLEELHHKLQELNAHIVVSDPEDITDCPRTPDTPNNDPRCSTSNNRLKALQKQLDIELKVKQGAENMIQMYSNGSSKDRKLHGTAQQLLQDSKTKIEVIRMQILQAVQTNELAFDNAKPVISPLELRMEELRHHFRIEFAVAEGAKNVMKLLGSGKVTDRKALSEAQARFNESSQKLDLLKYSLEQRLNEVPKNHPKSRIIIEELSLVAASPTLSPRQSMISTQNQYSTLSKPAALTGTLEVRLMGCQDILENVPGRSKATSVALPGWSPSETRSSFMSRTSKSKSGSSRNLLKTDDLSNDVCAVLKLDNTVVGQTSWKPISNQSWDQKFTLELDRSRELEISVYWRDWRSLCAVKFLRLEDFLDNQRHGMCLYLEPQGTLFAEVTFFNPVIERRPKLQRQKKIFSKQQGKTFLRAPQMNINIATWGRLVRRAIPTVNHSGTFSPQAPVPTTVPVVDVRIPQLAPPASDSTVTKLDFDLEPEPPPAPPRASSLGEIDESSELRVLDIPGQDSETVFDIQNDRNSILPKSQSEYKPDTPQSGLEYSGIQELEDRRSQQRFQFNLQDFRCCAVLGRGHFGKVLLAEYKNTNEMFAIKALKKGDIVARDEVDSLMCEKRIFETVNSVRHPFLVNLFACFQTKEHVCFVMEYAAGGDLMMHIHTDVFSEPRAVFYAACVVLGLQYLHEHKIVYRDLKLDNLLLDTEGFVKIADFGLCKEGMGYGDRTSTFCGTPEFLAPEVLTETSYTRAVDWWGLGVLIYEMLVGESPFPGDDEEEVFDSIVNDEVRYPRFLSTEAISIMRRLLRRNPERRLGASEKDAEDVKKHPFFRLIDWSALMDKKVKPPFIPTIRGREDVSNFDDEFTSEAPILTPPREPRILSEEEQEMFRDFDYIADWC

[5] = target: T2, SGK (Homo sapiens, UniProt O00141); test: cell-free kinase activity assay; conditions: DMSO control set 100%
T2 sequence (O00141 1-431): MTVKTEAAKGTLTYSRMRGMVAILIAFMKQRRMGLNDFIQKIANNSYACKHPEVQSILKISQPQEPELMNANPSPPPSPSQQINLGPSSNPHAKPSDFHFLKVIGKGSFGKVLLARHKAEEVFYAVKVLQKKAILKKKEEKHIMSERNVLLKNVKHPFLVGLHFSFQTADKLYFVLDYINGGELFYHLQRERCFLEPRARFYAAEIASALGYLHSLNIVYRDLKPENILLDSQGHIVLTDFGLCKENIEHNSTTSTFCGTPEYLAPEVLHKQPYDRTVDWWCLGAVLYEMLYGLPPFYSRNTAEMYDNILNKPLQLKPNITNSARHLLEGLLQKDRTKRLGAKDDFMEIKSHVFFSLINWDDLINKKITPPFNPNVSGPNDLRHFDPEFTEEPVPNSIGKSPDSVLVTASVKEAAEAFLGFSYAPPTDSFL

[6] = target: PKBβ (Homo sapiens, UniProt P31751); test: cell-free kinase activity assay; conditions: DMSO control set 100%
Sequence of PKBβ (P31751 whole entry, species assumed): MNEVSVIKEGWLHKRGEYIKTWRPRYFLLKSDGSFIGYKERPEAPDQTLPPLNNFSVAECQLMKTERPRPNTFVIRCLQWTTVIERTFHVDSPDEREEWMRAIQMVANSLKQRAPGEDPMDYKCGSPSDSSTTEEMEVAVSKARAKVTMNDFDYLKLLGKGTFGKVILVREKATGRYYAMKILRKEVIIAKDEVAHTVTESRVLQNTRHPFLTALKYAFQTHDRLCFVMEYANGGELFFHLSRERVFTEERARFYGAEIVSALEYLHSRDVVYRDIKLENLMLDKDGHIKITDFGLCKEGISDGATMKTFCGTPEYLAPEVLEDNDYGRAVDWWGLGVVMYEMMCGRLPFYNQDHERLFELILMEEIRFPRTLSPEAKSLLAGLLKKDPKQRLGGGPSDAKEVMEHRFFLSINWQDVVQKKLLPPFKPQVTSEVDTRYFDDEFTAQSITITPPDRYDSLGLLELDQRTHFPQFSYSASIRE

| SMILES | AC50 [1] | max. activation of PDK1 (fold) [1] | further results |
| --- | --- | --- | --- |
| O=C(O)C=C(c1ccccc1)c1cc2cc(Cl)ccc2o1 (mixture of isomers) [PS 101, (E/Z)-3-(5-Chloro-2-benzofuranyl)-3-phenylacrylic acid] | 31.6 µM | 3.2 fold | – |
| Cc1ccc2oc(C(=CC(=O)O)c3ccccc3)cc2c1 (mixture of isomers) [PS 103, (E/Z)-3-(5-Methyl-2-benzofuranyl)-3-phenylacrylic acid] | 41.3 µM | 3.1 fold | – |
| O=C(O)/C=C(\CCc1cccc(Cl)c1)c1ccccc1 [PS 88, (E)-5-(3-Chlorophenyl)-3-phenylpent-2-enoic acid] | > 100 µM | 2 fold | – |
| O=C(O)/C=C(\COc1ccc(Cl)cc1)c1ccccc1 [PS 95, (Z)-4-(4-Chlorophenoxy)-3-phenylbut-2-enoic acid] | > 60 µM | 2.7 fold | – |
| O=C(O)/C=C(/COc1ccc(Cl)cc1)c1ccccc1 [PS 97, (E)-4-(4-Chlorophenoxy)-3-phenylbut-2-enoic acid] | 22.8 µM | 3.0 fold | – |
| O=C(O)/C=C(\c1ccccc1)c1cc2cc(Cl)ccc2s1 [PS 119, (E)-3-(5-Chloro-2-benzothiophenyl)-3-phenylacrylic acid] | 13.2 µM | 3.1 fold | – |
| Cc1ccc2oc(C(CC(=O)O)c3ccccc3)cc2c1 (centres unmarked) [PS 120, 3-(5-Methyl-2-benzofuranyl)-3-phenylpropanoic acid] | 29.1 µM | 2.7 fold | – |
| O=C(O)CC(c1ccccc1)c1cc2cc(Cl)ccc2o1 (centres unmarked) [PS 124, 3-(5-Chloro-2-benzofuranyl)-3-phenylpropanoic acid] | 19 µM | 2.9 fold | – |
| CCc1ccc(CC/C(=C\C(=O)O)c2ccccc2)cc1 [PS 129, (E)-5-(4-Ethylphenyl)-3-phenylpent-2-enoic acid] | > 100 µM | 1.5 fold | – |
| CCc1ccc(CC/C(=C/C(=O)O)c2ccccc2)cc1 [PS 130, (Z)-5-(4-Ethylphenyl)-3-phenylpent-2-enoic acid] | > 30 µM | 1.4 fold | – |
| O=C(O)/C=C(\CCc1ccc(Cl)c(Cl)c1)c1ccccc1 [PS 131, (E)-5-(3,4-Dichlorophenyl)-3-phenylpent-2-enoic acid] | > 100 µM | 2 fold | – |
| O=C(O)/C=C(\CCc1ccc(Cl)cc1Cl)c1ccccc1 [PS 135, (E)-5-(2,4-Dichlorophenyl)-3-phenylpent-2-enoic acid] | – | n.e. | AC50 PDK1 (μM) [1]: n.e. |
| O=C(O)/C=C(\CCc1ccc(F)cc1)c1ccccc1 [PS 136, (E)-5-(4-Fluorophenyl)-3-phenylpent-2-enoic acid] | > 100 µM | 1.3 fold | – |
| O=C(O)/C=C(\CCc1ccc(Br)cc1)c1ccccc1 [PS 137, (E)-5-(4-Bromophenyl)-3-phenylpent-2-enoic acid] | > 100 µM | 2 fold | – |
| O=C(O)/C=C(\CCc1ccc2ccccc2c1)c1ccccc1 [PS 138, (E)-5-(2-Naphthalenyl)-3-phenylpent-2-enoic acid] | 27.1 µM | 3.1 fold | – |
| O=C(O)CC(Cc1nc2c(Cl)cc(Cl)cc2[nH]1)c1ccc(Cl)cc1 (centres unmarked) [PS 171, 4-(5,7-Dichloro-2-benzimidazolyl)-3-(4-chlorophenyl)butanoic acid] | – | – | percent of catalytic activity of the Kinase in the presence of compound as compared to the solvent control (DMSO): S6K ([2]; 50 μM compound): weak inhib.; remaining activity at 200 µM ([2]; 200 μM compound, read-out: percent of catalytic activity of the Kinase in the presence of compound as compared to the solvent control (DMSO): S6K): ~50%; percent of catalytic activity of the Kinase in the presence of compound as compared to the solvent control (DMSO): PKA ([3]; 50 μM compound): no effect; remaining activity at 200 µM ([3]; 200 μM compound, read-out: percent of catalytic activity of the Kinase in the presence of compound as compared to the solvent control (DMSO): PKA): 80 to 90%; percent of catalytic activity of the Kinase in the presence of compound as compared to the solvent control (DMSO): PRK2 ([4]; 50 μM compound): no effect; percent of catalytic activity of the Kinase in the presence of compound as compared to the solvent control (DMSO): PRK2 ([4]; 200 μM compound): no effect; percent of catalytic activity of the Kinase in the presence of compound as compared to the solvent control (DMSO): SGK ([5]; 50 μM compound): no effect; remaining activity at 200 µM ([5]; 200 μM compound, read-out: percent of catalytic activity of the Kinase in the presence of compound as compared to the solvent control (DMSO): SGK): ~70%; percent of catalytic activity of the Kinase in the presence of compound as compared to the solvent control (DMSO): PKBβ ([6]; 50 μM compound): no effect; remaining activity at 200 µM ([6]; 200 μM compound, read-out: percent of catalytic activity of the Kinase in the presence of compound as compared to the solvent control (DMSO): PKBβ): ~70%; activity at 200 µM ([1]; 200 μM compound, DMSO control set 100%, read-out: percent of catalytic activity of the Kinase in the presence of compound as compared to the solvent control (DMSO): PDK1): ~200% |

Continued, in another order:

| AC50 [1] | max. activation of PDK1 (fold) [1] | SMILES | further results |
| --- | --- | --- | --- |
| – | n.e. | O=C(O)/C=C(\CCc1ccc(C(F)(F)F)cc1)c1ccccc1 [PS 140, (E)-3-Phenyl-5-[4-(trifluoromethyl)phenyl]pent-2-enoic acid] | AC50 PDK1 (μM) [1]: n.e. |
| 34.6 µM | 2.9 fold | O=C(O)/C=C(\CCc1c[nH]c2ccccc12)c1ccccc1 [PS 158, (E)-5-(1H-Indol-3-yl)-3-phenylpent-2-enoic acid] | – |
| 9.3 µM | 3.7 fold | O=C(O)/C=C(/CCc1c[nH]c2ccccc12)c1ccccc1 [PS 159, (Z)-5-(1H-Indol-3-yl)-3-phenylpent-2-enoic acid] | – |
| 41 µM | 3.3 fold | O=C(O)/C=C(/CCc1ccc(F)cc1)c1ccccc1 [PS-T3, (Z)-5-(4-Fluorophenyl)-3-phenylpent-2-enoic acid] | – |
| 4 µM | more than 4 fold | O=C(O)/C=C(/CCc1ccc2ccccc2c1)c1ccccc1 [PS-T4, (Z)-5-(2-Naphthalenyl)-3-phenylpent-2-enoic acid] | max. activation of PDK1 (fold) ([1]; listed as T4): 4.2 fold |
| 8 µM | 3.4 fold | O=C(O)/C=C(/CCc1ccc(Cl)c(Cl)c1)c1ccccc1 [PS-T7, (Z)-5-(3,4-Dichlorophenyl)-3-phenylpent-2-enoic acid] | – |
| 9.4 µM | 2.2 fold | O=C(O)/C=C(/CCc1ccc(Cl)cc1Cl)c1ccccc1 [PS-T9, (Z)-5-(2,4-Dichlorophenyl)-3-phenylpent-2-enoic acid] | – |
